Holding throughout (type): functional
Assay [1] relates to Enterococcus faecium. The experiment in a line: In vitro antibacterial activity against Enterococcus faecium (ATCC 35667).
For assay [2], the system named is Enterococcus faecalis. Description: In vitro antibacterial activity against vancomycin resistant Enterococcus faecalis (VanB, ATCC 51299).
The next assay has as its system Staphylococcus aureus. Description: In vitro antibacterial activity against methicillin sensitive Staphylococcus aureus (ATCC 25923).
The test system of assay [3] is Enterococcus faecium. The experiment in a line: In vitro antibacterial activity against vancomycin resistant Enterococcus faecium.
Assay [4] concerns Enterococcus faecalis. The experiment in a line: In vitro antibacterial activity against vancomycin resistant Enterococcus faecalis (VanA, BM4166).

In brackets after ≈: the same amount, converted by molar mass.

For `CN[C@H](CC(C)C)C(=O)N[C@H]1C(=O)N[C@@H](CC#N)C(=O)N[C@H]2C(=O)N[C@H]3C(=O)N[C@H](C(=O)N[C@H](C(=O)O)c4cc(O)cc(O)c4-c4cc3ccc4O)[C@H](O)c3ccc(c(Cl)c3)Oc3cc2cc(c3O)Oc2ccc(cc2Cl)[C@H]1O`, the MIC in the assay on Enterococcus faecium [1] amounted to 20 µg/mL (≈ 17.8 µM); in the assay on Enterococcus faecalis [2], 320 µg/mL (≈ 284 µM); in the assay on Staphylococcus aureus it was 10 µg/mL (≈ 8.88 µM); against Enterococcus faecium [3], 640 µg/mL (≈ 568 µM); with Enterococcus faecalis [4], 640 µg/mL (≈ 568 µM).

With `CN[C@H](CC(C)C)C(=O)N[C@H]1C(=O)N[C@@H](CC(N)=O)C(=O)N[C@H]2C(=O)N[C@H]3C(=O)N[C@H](C(=O)N[C@H](C(=O)O)c4cc(OC)cc(OC)c4-c4cc3ccc4OC)[C@H](O)c3ccc(c(Cl)c3)Oc3cc2cc(c3OC)Oc2ccc(cc2Cl)[C@H]1O`, the MIC in the assay with Enterococcus faecium [1] came out at 2.5 µg/mL (≈ 2.08 µM); in the assay on Enterococcus faecalis [2], 20 µg/mL (≈ 16.7 µM); in the assay on Staphylococcus aureus it was 0.625 µg/mL (≈ 0.521 µM); against Enterococcus faecium [3], 40 µg/mL (≈ 33.3 µM); against Enterococcus faecalis [4], 40 µg/mL (≈ 33.3 µM).

Take `CN[C@H](CC(C)C)C(=O)N[C@H]1C(=O)N[C@@H](CC#N)C(=O)N[C@H]2C(=O)N[C@H]3C(=O)N[C@H](C(=O)N[C@H](C(=O)O)c4cc(OC)cc(OC)c4-c4cc3ccc4OC)[C@H](O)c3ccc(c(Cl)c3)Oc3cc2cc(c3OC)Oc2ccc(cc2Cl)[C@H]1O`: the MIC against Enterococcus faecium [1] was found to be 2.5 µg/mL (≈ 2.11 µM); against Enterococcus faecalis [2] it was 20 µg/mL (≈ 16.9 µM); against Staphylococcus aureus it was 0.31 µg/mL (≈ 0.262 µM); with Enterococcus faecium [3], 160 µg/mL (≈ 135 µM); in the assay with Enterococcus faecalis [4], 160 µg/mL (≈ 135 µM).

Take `CN[C@H](CC(C)C)C(=O)N[C@H]1C(=O)N[C@@H](CC#N)C(=O)N[C@H]2C(=O)N[C@H]3C(=O)N[C@H](C(=O)N[C@H](C(=O)O)c4cc(O)cc(O)c4-c4cc3ccc4O)[C@H](O)c3ccc(c(Cl)c3)Oc3cc2cc(c3O[C@@H]2O[C@H](CO)[C@@H](O)[C@H](O)[C@H]2O[C@H]2C[C@](C)(N)[C@H](O)[C@H](C)O2)Oc2ccc(cc2Cl)[C@H]1O`: the minimum inhibitory concentration (MIC) against Enterococcus faecium [1] was determined as 80 µg/mL (≈ 55.9 µM); against Enterococcus faecalis [2] it was 320 µg/mL (≈ 224 µM); against Staphylococcus aureus, 20 µg/mL (≈ 14 µM); against Enterococcus faecium [3] it was 320 µg/mL (≈ 224 µM); with Enterococcus faecalis [4] it was 320 µg/mL (≈ 224 µM).

Consider `CN[C@H](CC(C)C)C(=O)N[C@H]1C(=O)N[C@@H](CC(N)=O)C(=O)N[C@H]2C(=O)N[C@H]3C(=O)N[C@H](C(=O)N[C@H](C(=O)O)c4cc(O)cc(O)c4-c4cc3ccc4O)[C@H](O)c3ccc(c(Cl)c3)Oc3cc2cc(c3O)Oc2ccc(cc2Cl)[C@H]1O` [VANCOMYCIN AGLYCON], for which the MIC in the assay with Enterococcus faecium [1] was found to be 2.5 µg/mL (≈ 2.19 µM); against Enterococcus faecalis [2], 80 µg/mL (≈ 69.9 µM); against Staphylococcus aureus it was 0.625 µg/mL (≈ 0.546 µM); in the assay on Enterococcus faecium [3], 160 µg/mL (≈ 140 µM); in the assay on Enterococcus faecalis [4], 640 µg/mL (≈ 559 µM).

Take `CN[C@H](CC(C)C)C(=O)N[C@H]1C(=O)N[C@@H](CC#N)C(=O)N[C@H]2C(=O)N[C@H]3C(=O)N[C@H](C(=O)N[C@H](C(=O)OC)c4cc(OC)cc(OC)c4-c4cc3ccc4OC)[C@H](O)c3ccc(c(Cl)c3)Oc3cc2cc(c3OC)Oc2ccc(cc2Cl)[C@H]1O`: the MIC in the assay on Enterococcus faecium [1] is 1.25 µg/mL (≈ 1.05 µM); in the assay with Enterococcus faecalis [2], 2.5 µg/mL (≈ 2.09 µM); in the assay on Staphylococcus aureus, 0.625 µg/mL (≈ 0.523 µM); against Enterococcus faecium [3], 40 µg/mL (≈ 33.4 µM); against Enterococcus faecalis [4], 40 µg/mL (≈ 33.4 µM).

Regarding `CN[C@H](CC(C)C)C(=O)N[C@H]1C(=O)N[C@@H](CC(N)=O)C(=O)N[C@H]2C(=O)N[C@H]3C(=O)N[C@H](C(=O)N[C@H](C(=O)OC)c4cc(O)cc(O)c4-c4cc3ccc4O)[C@H](O)c3ccc(c(Cl)c3)Oc3cc2cc(c3O[C@@H]2O[C@H](CO)[C@@H](O)[C@H](O)[C@H]2O[C@H]2C[C@](C)(N)[C@H](O)[C@H](C)O2)Oc2ccc(cc2Cl)[C@H]1O`, the minimal inhibitory concentration (MIC) against Enterococcus faecium [1] is 2.5 µg/mL (≈ 1.71 µM); in the assay with Enterococcus faecalis [2], 80 µg/mL (≈ 54.7 µM); with Staphylococcus aureus, 2.5 µg/mL (≈ 1.71 µM); in the assay with Enterococcus faecium [3] it was 640 µg/mL (≈ 437 µM); in the assay with Enterococcus faecalis [4], 640 µg/mL (≈ 437 µM).

Consider `CN[C@H](CC(C)C)C(=O)N[C@H]1C(=O)N[C@@H](CC#N)C(=O)N[C@H]2C(=O)N[C@H]3C(=O)N[C@H](C(=O)N[C@H](C(=O)OC)c4cc(O)cc(O)c4-c4cc3ccc4O)[C@H](O)c3ccc(c(Cl)c3)Oc3cc2cc(c3O[C@@H]2O[C@H](CO)[C@@H](O)[C@H](O)[C@H]2O[C@H]2C[C@](C)(N)[C@H](O)[C@H](C)O2)Oc2ccc(cc2Cl)[C@H]1O`, for which the MIC in the assay on Enterococcus faecium [1] was found to be 10 µg/mL (≈ 6.92 µM); against Enterococcus faecalis [2] it was 160 µg/mL (≈ 111 µM); against Staphylococcus aureus it was 2.5 µg/mL (≈ 1.73 µM); in the assay with Enterococcus faecium [3], 320 µg/mL (≈ 221 µM); with Enterococcus faecalis [4], 640 µg/mL (≈ 443 µM).

As for `CN[C@H](CC(C)C)C(=O)N[C@H]1C(=O)N[C@@H](CC#N)C(=O)N[C@H]2C(=O)N[C@H]3C(=O)N[C@H](C(=O)N[C@H](C(=O)OC)c4cc(O)cc(O)c4-c4cc3ccc4O)[C@H](O)c3ccc(c(Cl)c3)Oc3cc2cc(c3O)Oc2ccc(cc2Cl)[C@H]1O`, the MIC with Enterococcus faecium [1] came to 5 µg/mL (≈ 4.39 µM); against Enterococcus faecalis [2], 320 µg/mL (≈ 281 µM); against Staphylococcus aureus, 1.25 µg/mL (≈ 1.1 µM); against Enterococcus faecium [3], 320 µg/mL (≈ 281 µM); in the assay with Enterococcus faecalis [4], 320 µg/mL (≈ 281 µM).

For `CN[C@H](CC(C)C)C(=O)N[C@H]1C(=O)N[C@@H](CC(N)=O)C(=O)N[C@H]2C(=O)N[C@H]3C(=O)N[C@H](C(=O)N[C@H](C(=O)OC)c4cc(O)cc(O)c4-c4cc3ccc4O)[C@H](O)c3ccc(c(Cl)c3)Oc3cc2cc(c3O)Oc2ccc(cc2Cl)[C@H]1O`, the MIC with Enterococcus faecium [1] worked out at 10 µg/mL (≈ 8.64 µM); against Enterococcus faecalis [2], 320 µg/mL (≈ 276 µM); against Staphylococcus aureus, 5 µg/mL (≈ 4.32 µM); with Enterococcus faecium [3], 320 µg/mL (≈ 276 µM); against Enterococcus faecalis [4], 640 µg/mL (≈ 553 µM).

For the compound `CN[C@H](CC(C)C)C(=O)N[C@H]1C(=O)N[C@@H](CC(N)=O)C(=O)N[C@H]2C(=O)N[C@H]3C(=O)N[C@H](C(=O)N[C@H](C(=O)O)c4cc(O)cc(O)c4-c4cc3ccc4O)[C@H](O)c3ccc(c(Cl)c3)Oc3cc2cc(c3O[C@@H]2O[C@H](CO)[C@@H](O)[C@H](O)[C@H]2O[C@H]2C[C@](C)(N)[C@H](O)[C@H](C)O2)Oc2ccc(cc2Cl)[C@H]1O` [VANCOMYCIN], the MIC worked out at 2.5 µg/mL (≈ 1.73 µM) against Enterococcus faecium [1]; 125 µg/mL (≈ 86.3 µM) against Enterococcus faecalis [2]; 1.25 µg/mL (≈ 0.863 µM) against Staphylococcus aureus; 500 µg/mL (≈ 345 µM) against Enterococcus faecium [3]; 2000 µg/mL (≈ 1380 µM) against Enterococcus faecalis [4].

`CN[C@H](CC(C)C)C(=O)N[C@H]1C(=O)N[C@@H](CC(N)=O)C(=O)N[C@H]2C(=O)N[C@H]3C(=O)N[C@H](C(=O)N[C@H](C(=O)OC)c4cc(OC)cc(OC)c4-c4cc3ccc4OC)[C@H](O)c3ccc(c(Cl)c3)Oc3cc2cc(c3OC)Oc2ccc(cc2Cl)[C@H]1O`: the MIC is 1.25 µg/mL (≈ 1.03 µM) in the assay with Enterococcus faecium [1]; 10 µg/mL (≈ 8.24 µM) against Enterococcus faecalis [2]; 0.625 µg/mL (≈ 0.515 µM) with Staphylococcus aureus; 40 µg/mL (≈ 32.9 µM) against Enterococcus faecium [3]; 40 µg/mL (≈ 32.9 µM) with Enterococcus faecalis [4].

What is called MIC is the least concentration at which growth counts as inhibited. A lower MIC goes with greater potency.

The values are drawn from ChEMBL document CHEMBL1135306, “Synthesis and evaluation of vancomycin and vancomycin aglycon analogues that bear modifications in the residue 3 asparagine” (2002).
